This assay concerns A/H1N1/California/07/2009. Kind of assay: Anti-influenza IgG and IgM levels in serum. The class given is in vivo, human. The settings on record: vs placebo cohorts. The method, then:
The trial was observer-blind because the placebo in the RAD001 0.5 mg daily and 20 mg weekly cohorts differed slightly from the RAD001 tablets in those cohorts. […] The treatment duration for all cohorts was 6 weeks during which time subjects underwent safety evaluations in the clinic every 2 weeks. After subjects had been dosed for 4 weeks, RAD001 steady state levels were measured pre-dose and at one hour post dose. […] Antibody titers to the 3 influenza vaccine strains as well as to 2 heterologous strains (A/H1N1 strain A/New Jersey/8/76 and A/H3N2 strain A/Victoria/361/11) were measured by standard hemagglutination inhibition assay (Kendal, A P et al. (1982) Concepts and procedures for laboratory-based influenza surveillance. Atlanta: Centers for Disease Control and Prevention B17-B35). Levels of IgG and IgM specific for the A/H1N1/California/07/2009 were measured in serum samples taken before and 4 weeks after influenza vaccination as described previously (Spensieri, F. et al. (2013) Proc. Natl. Acad. Sci. USA 110:14330-14335). Results were expressed as fluorescence intensity.

SMILES strings stand for the structures. “Also recorded” adds a separate entry of the source.

`CO[C@H]1C[C@@H]2CC[C@@H](C)[C@@](O)(O2)C(=O)C(=O)N2CCCC[C@H]2C(=O)O[C@H]([C@H](C)C[C@@H]2CC[C@@H](OCCO)[C@H](OC)C2)CC(=O)[C@H](C)/C=C(\C)[C@@H](O)[C@@H](OC)C(=O)[C@H](C)C[C@H](C)/C=C/C=C/C=C/1C` [RAD001, (1R,9S,12S,15R,16E,18R,19R,21R,23 S,24E,26E,28E,30S,32S,35R)-1,18-dihydroxy-12-{(1R)-2-[(1 S,3R,4R)-4-(2-hydroxyethoxy)-3-methoxycyclohexyl]-1-methylethyl}-19,30-dimethoxy-15,17,21,23,29,35-hexamethyl-11,36-dioxa-4-aza-tricyclo[30.3.1.04,9]hexatriaconta-16,24,26,28-tetraene-2,3,10,14,20-pentaone]: the “post-vaccination anti-influenza IgM and IgG levels” value is “No significant difference; also recorded: did not differ”.

For the origin of these results see patent US11999794B2, “Human mesothelin chimeric antigen receptors and uses thereof” (Novartis AG, priority 2013, dated 2024).
